Paper PMC5884906, “Single Administration of HBK-15—a Triple 5-HT1A, 5-HT7, and 5-HT3 Receptor Antagonist—Reverses Depressive-Like Behaviors in Mouse Model of Depression Induced by Corticosterone” (Molecular Neurobiology, 2017)
Values joined by “and” are separate entries in the source; they are usually repeats but may differ in a detail not shown here. Equal values may be shown once.

Experiments:
[1] = tested on: corticosterone-treated mice; assay: elevated plus maze, chronic administration, corticosterone model; format: in vivo
Procedure: The doses and route of administration of the studied compounds were based on our previous experiments. […] Mice were injected with corticosterone (s.c., 20 mg/kg) at random times during the light phase for 21 consecutive days (Fig. 1b). The dose and route of administration of corticosterone was based on studies performed by Zhao and colleagues. Thirty minutes before, corticosterone injection mice were given (i.p.) saline, HBK-14 (1.25 or 2.5 mg/kg), HBK-15 (0.625 or 1.25 mg/kg), or fluoxetine (10 mg/kg) (Fig. 1b). Control mice received (i.p.) saline and 30 min later saline containing 0.1% dimethyl sulfoxide (DMSO) and 0.1% Tween-80 (s.c.). The experimental groups consisted of eight randomly selected animals. After the end of the procedure, animals were tested in the sucrose preference test, forced swim test, elevated plus maze test, and spontaneous locomotor activity test. Following behavioral testing, rodents were scarified and their hippocampi collected for biochemical analysis. The elevated plus maze was performed according to the method previously described. […] Each mouse was individually placed at the central field of the apparatus with the head turned toward one of the closed arms. […] The device was disinfected with 70% ethanol after each mouse. The number of entries to open and closed arms and time spent in the open and closed arms were measured. The experiments were recorded and scored using aLab.io software by a trained observer blind to the treatments.

[2] = tested on: corticosterone-treated mice; assay: spontaneous locomotor activity, chronic administration; format: in vivo; conditions: 6 min session
Procedure: The doses and route of administration of the studied compounds were based on our previous experiments. […] Mice were injected with corticosterone (s.c., 20 mg/kg) at random times during the light phase for 21 consecutive days (Fig. 1b). The dose and route of administration of corticosterone was based on studies performed by Zhao and colleagues. Thirty minutes before, corticosterone injection mice were given (i.p.) saline, HBK-14 (1.25 or 2.5 mg/kg), HBK-15 (0.625 or 1.25 mg/kg), or fluoxetine (10 mg/kg) (Fig. 1b). Control mice received (i.p.) saline and 30 min later saline containing 0.1% dimethyl sulfoxide (DMSO) and 0.1% Tween-80 (s.c.). The experimental groups consisted of eight randomly selected animals. After the end of the procedure, animals were tested in the sucrose preference test, forced swim test, elevated plus maze test, and spontaneous locomotor activity test. Following behavioral testing, rodents were scarified and their hippocampi collected for biochemical analysis. The locomotor activity was performed as previously described. Locomotor activity was recorded individually for each mouse using activity cages made of clear Perspex (40 cm × 40 cm × 31 cm, Activity Cage 7441, Ugo Basile, Italy). The cages were supplied with I.R. horizontal beam emitters connected to a counter for the recording of light-beam interruptions. Each mouse was placed in a cage for a 30-min habituation period. […] The cages were disinfected with 70% ethanol after each mouse.

[3] = molecular target: T1, 5-HT3 receptors expressed in guinea pig ileum (Cavia porcellus, UniProt O70212); assay: guinea pig ileum contractions induced by serotonin; format: biochemical; conditions: for type of antagonism at 5-HT3 receptors: from depression of serotonin maximum; for Kd: functional affinity, double-reciprocal plot, read-out: 5-HT3 receptor pK B ± S.E.M (converted)
T1 construct: A segment (15 cm) of male guinea pig ileum was excised from the small intestine; from tissue; host or cells: isolated male guinea pig ileum segments in an organ bath
T1 sequence (O70212 20-490): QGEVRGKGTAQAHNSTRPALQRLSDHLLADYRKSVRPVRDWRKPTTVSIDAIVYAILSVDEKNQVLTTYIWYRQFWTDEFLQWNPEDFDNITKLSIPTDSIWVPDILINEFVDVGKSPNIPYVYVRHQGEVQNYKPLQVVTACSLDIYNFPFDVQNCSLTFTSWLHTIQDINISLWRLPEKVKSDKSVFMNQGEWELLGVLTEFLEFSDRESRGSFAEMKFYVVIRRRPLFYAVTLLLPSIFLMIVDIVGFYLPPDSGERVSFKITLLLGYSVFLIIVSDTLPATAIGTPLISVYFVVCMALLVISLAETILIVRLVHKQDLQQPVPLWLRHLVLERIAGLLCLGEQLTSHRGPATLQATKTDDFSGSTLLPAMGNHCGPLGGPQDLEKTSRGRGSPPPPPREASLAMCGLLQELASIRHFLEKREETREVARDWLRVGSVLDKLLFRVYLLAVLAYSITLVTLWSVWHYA

[4] = tested on: BDNF level in the hippocampus; assay: BDNF level in the hippocampus (ELISA), single administration; format: in vivo, mice
Procedure: Mice were injected with corticosterone (s.c., 20 mg/kg) at random times during the light phase for consecutive 21 days (Fig. 1c). The dose and route of administration of corticosterone were based on studies performed by Zhao and colleagues. After the end of the procedure, next day 30 min before the test, corticosterone-treated mice were given (i.p.) saline, HBK-15 (1.25 mg/kg), fluoxetine (10 mg/kg), or ketamine (1 mg/kg) (Fig. 1c). Control mice received (i.p.) saline. The experimental groups consisted of eight randomly selected animals. We chose the dose of HBK-15 that was active in the chronic experiments (i.e., 1.25 mg/kg). The dose of ketamine was based on the studies performed by Pazini and colleagues. Animals were tested in the forced swim test and spontaneous locomotor activity test. After behavioral testing, mice were scarified and their hippocampi collected for biochemical analysis.
After the behavioral assessments, mice were sacrificed, and their brains were rapidly removed and chilled in an ice-cold saline solution. The hippocampi were dissected on a cold plate, frozen, and stored at −80 °C until assay. On the day of experiments, tissues were thawed on ice and homogenized (1:9 w/v) in phosphate-buffered saline (4 °C) and protease inhibitor cocktail was added. The 10% homogenates were prepared and homogenized for 30 s with TissueRuptor homogenizer. The homogenized tissues were centrifuged (2500×g at 4 °C for 20 min), and the supernatants were collected for further assays.
Protein concentrations of BDNF and NGF in homogenates from hippocampi were determined using the enzyme-linked immunosorbent assay (ELISA) kits (BDNF: DZE201020014, SunRed Biotechnology Company; NGF: MBS825100, MyBioSource) according to the manufacturer’s instructions. […] The samples were analyzed in duplicates, and the mean concentrations were calculated. […] The intensity of the color was read at 450 nm. Absorbance was measured in a multifunction plate reader (POLARstar Omega, BMG Labtech, Germany). […]

5-HT7 receptor = molecular target: 5-HT7 receptor; parameters: method as in PMID 26554929; conditions: previous experiments; read-out: 5-HT7 receptor antagonist IC50; cited from earlier work
[5] = 1.25 mg/kg i.p. 21 days + corticosterone
[6] = corticosterone 20 mg/kg s.c. 21 days + saline

Compound | type of antagonism at 5-HT3 receptors [3] | Kd [3] [nM] | effect on corticosterone-induced decrease in number of open arm entries ([1]; 2.5 mg/kg i.p., 21 days) | effect on corticosterone-induced decrease in time spent in the open arms ([1]; 2.5 mg/kg i.p., 21 days) | Number of crossings ± S.E.M [2, 5] | IC50 (5-HT7 receptor) [nM] | also measured
CNCCC(Oc1ccc(C(F)(F)F)cc1)c1ccccc1 (centres unmarked) [fluoxetine, reference compound] |  |  |  |  |  |  | effect on corticosterone-induced decrease in number of open arm entries ([1]; 10 mg/kg i.p., 21 days): prevented the decreases; effect on corticosterone-induced decrease in time spent in the open arms ([1]; 10 mg/kg i.p., 21 days): prevented the decreases in the time spent in the open arms; Number of crossings ± S.E.M ([2]; 10 mg/kg i.p. 21 days + corticosterone): 510.3 ± 54.0 and 423.3 ± 47.3
COc1ccccc1N1CCN(CCOCCOc2c(C)cccc2Cl)CC1.Cl [HBK-15, 1-[(2-chloro-6-methylphenoxy)ethoxyethyl]-4-(2-methoxyphenyl)piperazine hydrochloride] | non-competitive interaction with 5-HT3 receptors | 43.6 | prevented the decreases | prevented the decreases in the time spent in the open arms | 478.9 ± 78.8 | 220 | Number of crossings ± S.E.M ([2]; 0.625 mg/kg i.p. 21 days + corticosterone): 466.1 ± 84.8; effect on corticosterone-induced decrease in BDNF level in the hippocampus ([4]; single 1.25 mg/kg i.p.): reversed the decrease in BDNF level
C[C@]12C[C@H](O)[C@H]3[C@@H](CCC4=CC(=O)CC[C@@]43C)[C@@H]1CC[C@@H]2C(=O)CO [corticosterone] |  |  |  |  |  |  | decrease in open arm entries vs control [1, 6]: 56% and 48%; decrease in time spent in the open arms vs control [1, 6]: 48%; Number of crossings ± S.E.M [2, 6]: 343.4 ± 27.3 and 394.5 ± 67.1; decrease in BDNF level in the hippocampus vs control ([4]; acute experiment, corticosterone 20 mg/kg s.c. 21 days + saline): 47.0%
COc1ccccc1N1CCN(CCOCCOc2c(C)cccc2C)CC1.Cl [HBK-14, 1-[(2,6-Dimethylphenoxy)ethoxyethyl]-4-(2-methoxyphenyl)piperazine hydrochloride] | non-competitive antagonism | 11.2 | prevented the decreases | prevented the decreases in the time spent in the open arms | 406.3 ± 64.2 | 77 | number of open arms entries compared with fluoxetine ([1]; 2.5 mg/kg i.p., 21 days, vs fluoxetine 10 mg/kg): significantly increased; Number of crossings ± S.E.M ([2]; 2.5 mg/kg i.p. 21 days + corticosterone): 400.8 ± 55.8
